# Legend:
# [1] = system: platelet aggregation induced by ADP; assay: Platelet aggregation inhibitory activity in vivo (Born aggregometer), ADP-induced; set-up: species or system New Zealand rabbits; conditions: Oryctolagus cuniculus, Platelet, ip, dose for 50% inhibition of ADP-induced aggregation curve; rabbits, intraperitoneal, blood 2, 4 and 6 hours after injection; read-out: platelet antiaggregant activity (AAP), DI50, ADP
# Experimental: (§1) Determination of the platelet aggregation inhibitory activity in vivo
# (§2) The activity of the above described compounds as platelet antiaggregant was tested in vivo on rabbits, by the Born aggregometer. The inhibition of the aggregation curve induced by ADP and thrombin was assessed with different drug concentrations according to the platelet reactivity. New Zealand rabbits which had been held fasting for 12 hours with water ad libitum, were anaesthetized with Nembutal in a dose of 35 mg/kg intramuscolarly. The blood was withdrawn from the carotidal arthery, before (control) and 2, 4, and 6 hours after the intraperitoneal injection of the compounds under examination (at the dose indicated below). The blood samples were taken up in a 3.8% aqueous solution of sodium citrate in a ratio 10:1 and thereupon centrifuged at 1500 r.p.m. for 10 minutes, for obtaining a PRP (platelet rich plasma). A portion of such a plasma was thereupon centrifuged at 8000 r.p.m. for 10 minutes, for obtaining a PPP (platelet lean plasma) which was used for zeroing the measuring apparatus.
# (§3) From the results of said experiments, there was determined the dose of each product in mg/kg body weight able to induce a 50% inhibition of the aggregation curve (DI50) after treatment, referred to the curve obtained by the same control plasma before treatment.
# (§4) In tables I and II are further indicated for each compound the method of preparation; the melting point PF in °C; the platelet antiaggregant activity (AAP) expressed in terms of DI50 in mg/kg, referred to ADP and thrombin respectively; the antithrombin activity (AT) in %; the anticoagulant activity (AC) in %; the fibrinolytic activity (FL) in %; the acute toxicity (LD50) in mice, intraperitoneally, in mg/kg, as previously defined.
# [2] = system: thrombin-induced coagulation of platelet rich plasma; assay: Antithrombin activity on PRP, Hartert's thromboelastograph; type: in vivo, New Zealand rabbits; conditions: Oryctolagus cuniculus, Platelet, ip, percent decrease of index ma/[r+k] vs before treatment; 20 mg/kg intraperitoneal, rabbits
# Experimental: Determination of the antithrombin activity
# The antithrombin activity on the PRP (platelet rich plasma) obtained following the above described method was assessed by Hartert's thromboelastograph (Hellige model). The coagulation was induced by adding to 0.25 ml of plasma 0.06 ml of a thrombin solution (Roche Topostasin® per os) at 60 units*, pH 7.4**. The antithrombin activity was assessed in terms of a percent decrease of the index (ma/[r+k]) which was calculated from the thromboelastograph diagram, wherein r is the reaction time, k is the speed of the coagulum formation and ma is the maximum spread of the tong, after an intraperitoneal treatment with a dose of 20 mg/kg of each compound under examination, referred to the same index obtained before the treatment (control).
# as §4
# [3] = Acute toxicity, intraperitoneal; conditions: mouse, in vivo, ip, male Swiss mice, intraperitoneal, 7 days observation; preliminary, by graphic interpolation; read-out: acute toxicity (LD50 / DL50)
# Experimental: The acute toxicity limit was determined intraperitoneally on male Swiss mice, weighing 20±2 g, held fasting for 18 hours with water ad libitum.
# The animals were maintained under observation for 7 days of treatment, by examining the general symptomatology and noting the death sequency. The preliminary DL50 in mg/kg body weight was calculated by graphic interpolation of the results as obtained.
# as §4
# [4] = system: platelet aggregation induced by thrombin; assay: Platelet aggregation inhibitory activity in vivo (Born aggregometer), thrombin-induced; set-up: species or system New Zealand rabbits; conditions: Oryctolagus cuniculus, Platelet, ip, dose for 50% inhibition of thrombin-induced aggregation curve; rabbits, intraperitoneal, blood 2, 4 and 6 hours after injection; read-out: platelet antiaggregant activity (AAP), DI50, Thrombin
# Experimental: as §1, §2, §3, §4
# [5] = system: CaCl2-induced plasma coagulation; assay: Anticoagulant activity on PRP, Hartert's thromboelastograph; type: in vivo, New Zealand rabbits; conditions: Oryctolagus cuniculus, ip, percent increase of total time for coagulum formation (r+k) vs before treatment; 25 mg/kg intraperitoneal, rabbits; read-out: anticoagulant activity (AC)
# Experimental: Determination of the anticoagulant activity
# The anticoagulant activity was also assessed on PRP of animals treated as described in the preceding methods, by using again Hartert's thromboelastograph method.
# The plasma coagulation was induced by adding to 0.25 ml PRP a 1.29% solution of CaCl2.
# The anticoagulant effect was determined as a percent increase of the total time for the coagulum formation (the index r+k can be obtained from the thromboelastograph diagram) in a plasma after treatment, referred to the same index obtained before the treatment (control). Again the dose level was 25 mg/kg for each compound under examination, intraperitoneally.
# as §4
# blood coagulum = assay: Fibrinolytic activity, Fearnley method (lysis of blood coagulum in toto); type: in vivo; conditions: Oryctolagus cuniculus, ip, 0.5 h, percent decrease of coagulum weight after 30 minutes at 37° C.; 25 mg/kg intraperitoneal, rabbits; read-out: fibrinolytic activity (FL)
# Experimental: Determination of the fibrinolytic activity
# The determination of the fibrinolytic activity was made following the Fearnley method for the lysis of the blood coagulum in toto.
# 0.2 ml of blood were withdrawn from the marginal vein of the ear of rabbits treated in the same way as the previously described tests, before and after an intraperitoneal injection of the compounds under test at a dose level of 25 mg/kg for each compound.
# The blood samples were placed in test tubes containing 1.7 ml of phosphate buffer at pH 7.4 and 0.1 ml of thrombin (Roche Topostasin ® per os) at 50 units NIH/ml, and maintained in an ice bath. The test tubes were maintained at said temperature for 30 minutes and thereupon were transferred to a temperature controlled water bath at 37° C.
# The fibrinolytic activity was determined as a percent decrease of the coagulum weight, measured after incubation for 30 minutes at 37° C.
# as §4
Structure (SMILES),ED50 [1] [mg/kg],inhibition in vivo at 20 mg/kg [2] [%],LD50 at 168 h [3] [mg/kg],ED50 [4] [mg/kg],change in vivo at 25 mg/kg [5] [%],fibrinolytic activity (percent decrease of coagulum weight) at 25 mg/kg (blood coagulum) [%]
C=CCOc1ccc(C(=O)NCc2ccncc2)cc1C(=O)NCc1ccncc1 [Example 61],28.6,52.8,392,19.5,15.6,45
CC(C)Oc1ccc(C(=O)NCc2ccncc2)cc1C(=O)NCc1ccncc1 [Example 62],46.8,26.5,618,32.3,12,21.7
CC(C)CCOc1ccc(C(=O)NCc2ccncc2)cc1C(=O)NCc1ccncc1 [Example 63],42.9,29.2,185,28.4,22.6,23.2
C=CC(C)Oc1ccc(C(=O)NCc2ccncc2)cc1C(=O)NCc1ccncc1 (stereo not drawn) [Example 64],35.1,45.9,360,24,19.2,33.6
CC(C)=COc1ccc(C(=O)NCc2ccncc2)cc1C(=O)NCc1ccncc1 [Example 65],36.7,34.2,240,24.5,23.8,26.5
COc1c(Cl)cc(C(=O)NCc2ccncc2)cc1C(=O)NCc1ccncc1 [Example 66],67.2,25,437,42.5,13.6,20.2
C=CCOc1c(Cl)cc(C(=O)NCc2ccncc2)cc1C(=O)NCc1ccncc1 [Example 67],55.6,39.8,187,34.2,14.6,27.1
C=C(C)Oc1c(Cl)cc(C(=O)N(C)Cc2ccncc2)cc1C(=O)N(C)Cc1ccncc1 [Example 68],47.5,35.2,255,30,15.5,30
CC=CCOc1ccc(C(=O)N(C)Cc2ccncc2)cc1C(=O)N(C)Cc1ccncc1 [Example 69],26.1,48.7,210,19.3,14.2,41.6
C=C(C)COc1ccc(C(=O)N(CCC)Cc2ccncc2)cc1C(=O)N(CCC)Cc1ccncc1 [Example 70],30.6,48.2,360,20.8,18.9,39.3
COc1c(Cl)cc(C(=O)N(Cc2ccncc2)C(C)C)cc1C(=O)N(Cc1ccncc1)C(C)C [Example 71],28.1,53.9,384,19.6,25.6,47.7

# Source: US4294833A, “Substituted 4-hydroxy-isophthalic acid picolylamides having a pharmaceutical activity in thromboembolic disorders” (Societa Italo-Britannica, priority 1977, dated 1981)
